Experimental data as given in patent US20260224465A1, “COMPOSITIONS COMPRISING A RETINOID AND A PROCESSED OAT INGREDIENT” (Kenvue Brands LLC, priority 2023, published 2026).

Key:
Type in all cases: cell-based
[1] = test system: CRABP2; assay: CRABP2 gene expression (qPCR) in primary human dermal fibroblasts; details: 30 hours of treatment, normalized against POLR2A, concentration given by sample
Procedure: (§1) CRAPB2, IL8 and HAS2 were evaluated in several samples containing fermented oat, retinol, and combinations of the two in varying amounts. Retinol (BASF, 50C) was prepared by dissolving Retinol in Dimethyl Sulfoxide (DMSO) for a concentration of 20% Retinol. Retinol was then further diluted in DMEM with GlutaMAX media supplemented with 1% FBS and 1X Penn/Strep for a stock concentration of (1.1×10^−4) % and (1.1×10^−5) % Retinol. […] Fermented Oat (aurafirm P, Oat Cosmetics, Hampshire, United Kingdom; INCI Aqua, Avena sativa (Oat) Kernel Extract, Lactobacillus Ferment, Sodium Benzoate, Potassium Sorbate) was diluted in media to provide 0.2% and 1.0% Fermented Oat solutions. Primary human dermal fibroblasts were acquired from Lifeline Cell Technology, LLC (Frederick, MD 21701; lot 0967). The donor demographics were as follows: person, fibroblasts isolated from breast. Fibroblasts were cultured and expanded using Dermal Fibroblast Culture Medium (Zenbio, Inc, Durham, NC 27713). […] The cDNA was evaluated by qPCR (using the QuantStudio™ 7 Flex Real-Time PCR System from Applied Biosystems, Waltham, MA). […] The fold changes were calculated in comparison to the untreated control and two-tailed two-sample Student t-tests (Microsoft Office Excel 2007; Microsoft, Redmond, WA, USA) were performed. […]

[2] = test system: HAS2; assay: HAS2 gene expression (qPCR) in primary human dermal fibroblasts; details: 30 hours of treatment, normalized against POLR2A, concentration given by sample
Procedure: as §1

[3] = test system: IL8; assay: IL8 gene expression (qPCR) in primary human dermal fibroblasts; details: 30 hours of treatment, normalized against POLR2A, concentration given by sample
Procedure: as §1

[4] = test system: IL8; assay: IL8 gene expression (qPCR) in human skin explants; details: human abdominal skin explants, topical 4 μL in PgETOH, 48 hours
Procedure: Propylene glycol/ethanol (PgETOH) (3:7) (w/w) was used as a vehicle. 1% Colloidal oat (Avena Sativa Kernel Flour, Oat Cosmetics, Southampton, United Kingdom) and 0.1% Retinol solutions were each prepared in PgETOH as shown in Tables 4-7. Combinations were prepared by adding the appropriate amount of test solutions to arrive at the final concentrations as shown.
Abdominal skin samples were obtained from human adults undergoing abdominoplasty surgery. Informed consent was obtained from each patient, and all experimental steps were approved by an institutional review board (IRB). Subcutaneous fat was carefully removed and skin biopsies of 0.93 cm^2 were prepared under sterile conditions and acclimated in DMEM/F12 (1:1) medium, 2% heat-inactivated fetal bovine serum, 10 μg/mL insulin, 10 ng/mL hydrocortisone, 10 ng/mL EGF, 1x ABAM under a 5% CO2 humidified atmosphere overnight. Skin explants were treated topically with 4 μL of each formulation for 48 hours. […]
Reverse transcription (RT) was performed using the Applied Biosystems High Capacity Reverse Transcription Kit (ThermoFisher Scientific, Bridgewater, NJ). […] The fold changes were calculated in comparison to the untreated or vehicle controls and two-tailed two-sample Student t-tests (Microsoft Office Excel 2007; Microsoft, Redmond, WA, USA) were performed. Synergies were calculated as described above. […]

[5] = test system: HBEGF; assay: HBEGF gene expression (qPCR) in human skin explants; details: human abdominal skin explants, topical 4 μL in PgETOH, 48 hours
Procedure: (§2) Propylene glycol/ethanol (PgETOH) (3:7) (w/w) was used as a vehicle. 1% Colloidal oat (Avena Sativa Kernel Flour, Oat Cosmetics, Southampton, United Kingdom) and 0.1% Retinol solutions were each prepared in PgETOH as shown in Tables 4-7. Combinations were prepared by adding the appropriate amount of test solutions to arrive at the final concentrations as shown. Abdominal skin samples were obtained from human adults undergoing abdominoplasty surgery. Informed consent was obtained from each patient, and all experimental steps were approved by an institutional review board (IRB). Subcutaneous fat was carefully removed and skin biopsies of 0.93 cm^2 were prepared under sterile conditions and acclimated in DMEM/F12 (1:1) medium, 2% heat-inactivated fetal bovine serum, 10 μg/mL insulin, 10 ng/mL hydrocortisone, 10 ng/mL EGF, 1x ABAM under a 5% CO2 humidified atmosphere overnight. Skin explants were treated topically with 4 μL of each formulation for 48 hours. […] The fold changes were calculated in comparison to the untreated or vehicle controls and two-tailed two-sample Student t-tests (Microsoft Office Excel 2007; Microsoft, Redmond, WA, USA) were performed. Synergies were calculated as described above. […]

[6] = test system: CRABP2; assay: CRABP2 gene expression (qPCR) in human skin explants; details: human abdominal skin explants, topical 4 μL in PgETOH, 48 hours
Procedure: as §2

[7] = test system: HAS3; assay: HAS3 gene expression (qPCR) in human skin explants; details: human abdominal skin explants, topical 4 μL in PgETOH, 48 hours
Procedure: as §2

Row | Compound | CRABP2 Average Fold Change over untreated [1] | HAS2 Average Fold Change over untreated [2] | IL8 Average Fold Change over untreated [3] | IL8 Average Fold Change over untreated [4] | HBEGF Average Fold Change over untreated [5] | CRABP2 Average Fold Change over untreated [6] | HAS3 Average Fold Change over untreated [7]
1 | CC1=C(/C=C/C(C)=C/C=C/C(C)=C/CO)C(C)(C)CCC1 [Sample 1-2, Retinol] | 1.44 fold | 0.79 fold | 2.05 fold |  |  |  | 
2 | CC1=C(/C=C/C(C)=C/C=C/C(C)=C/CO)C(C)(C)CCC1 [Sample 1-3, Retinol] | 4.25 fold | 0.50 fold | 18.83 fold |  |  |  | 
3 | CC1=C(/C=C/C(C)=C/C=C/C(C)=C/CO)C(C)(C)CCC1 [Sample 2-3, Retinol] |  |  |  | 2.30 fold | 3.50 fold | 3.95 fold | 3.05 fold
